One series concerns BT-474. The experiment in a line: In vitro cytotoxicity assay (MTT). The format is cell-based, human. As to conditions: BT-474, 6 days incubation, MTT. In outline: (§1)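 Cells were seeded at 1000–10 000 cells/well depending on line, left 24 h at 37°C, then exposed to serial compound dilutions for 6 days at 37°C. MTT was added for 1–4 h, formazan dissolved in acidified isopropanol, absorbance read at 570 nm (reference 690 nm); IC50 versus untreated cells came from dose-response fits.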

Another series relates to JIMT-1. The experiment in a line: In vitro cytotoxicity assay (MTT). The format is cell-based, human. As to conditions: 6 days incubation. The essentials:
as §1

The next series concerns MDA-MB-231. Description: In vitro cytotoxicity assay (MTT). The format is cell-based, human. The note with it: 6 days incubation. The essentials: as §1
A further series deals with MDA-MB-453. The experiment in a line: In vitro cytotoxicity assay (MTT). The format is cell-based, human. The note with it: 6 days incubation. In outline: as §1
The next series concerns NCI-N87. Description: In vitro cytotoxicity assay (MTT). The format is cell-based, human. As to conditions: 6 days incubation. The essentials: as §1
A further series deals with SKBR-3. The experiment in a line: In vitro cytotoxicity assay (MTT). The format is cell-based, human. The note with it: 6 days incubation. The essentials:
as §1

Series [1] has as its system cancerous human cell lines. The experiment in a line: In vitro cytotoxicity assay (MTT), side-by-side comparisons over the cell line panel. As to conditions: side-by-side comparison (Figures 1-3, Table 3), result in words. The format is cell-based. As to the method: In vitro cytotoxicity of compounds of the disclosure was assessed on several cancerous human cell lines. Cells were plated in 96-well plates at an appropriate density depending on the cell line (between 1000 and 10 000 cells/well in 100µL of appropriate culture media) and incubated at 37°C for 24 hours. Serial dilutions of the tested compound previously dissolved in culture media (50µL) were added, and incubation was carried at 37°C out for 6 days. MTT (5mg/mL in PBS, 20µL, Sigma-Aldrich) was added into the wells, and incubation was continued for 1 to 4 hours at 37°C. Culture media was then carefully removed, and well content was homogeneously dissolved with acidified isopropanol. Absorbance values were measured on a microplate reader using a wavelength of 570 nm (with a reference wavelength of 690 nm). The IC50 concentration values compared to untreated control cells were determined using inhibition dose response curve fitting (GraphPad Prism 9). Exatecan mesylate (cat#HY-13631A) and CR8 (CAS# 294646-77-8; cat#HY-18340) were purchased from MedChemExpress (China).

For a further series, the system named is CycK. Description: CycK protein quantification by Western Blot. The format is cell-based, human. As to conditions: 10nM, 2h treatment of JIMT-1 cells. The method, then:
1×10^6 JIMT-1 cells were plated in 3mL of DMEM/FBS 90:10 (v/v) in 6-well plates and incubated overnight. Cells were treated with the compound 2384 of the invention with or without the proteasome inhibitor MG-132 (MedChemExpress, Cat HY-13259) for 2h. Cells were harvested, and protein were extracted using complete RIPA buffer (RIPA buffer, 1 mM DTT, 1M NaF, 100 mM sodium orthovanadate, phosphatase inhibitor buffer and protease inhibitors) for 1 hour on ice. Lysate were centrifuged 15min at 12 000g at 4°C. and proteins were mixed with 4x Laemmli Sample Buffer (Bio-Rad), heated at 95 °C for 5 mins and separated by SDS PAGE (PROTEAN TGX Stain-Free Gels, Bio-Rad). Proteins were then transferred onto PVDF membrane (iBlot®2 PVDF stacks, Invitrogen) using the iBlot2 device (Invitrogen) and blocked with TBS buffer (Intercept® Blocking Buffer, LI-COR Biosciences). Primary antibodies were incubated overnight at 4°C and secondary antibodies (IRDye Infrared Dyes from LI-COR Biosciences) 1 hour at room temperature. Used primary antibody were: anti-CycK (cat#A301-939A, Bethyl Laboratories, dil. 1:1000) and anti-β-actin (cat#A5441, Sigma-Aldrich, dil. 1:5000). Membranes were scanned using a c500 Imaging System (Azure Biosystems) and densitometric quantification were performed using imaged software. Protein levels were normalized against β-actin.
For orientation: In western blotting, separated proteins are transferred to a membrane and probed.

The subject of the next series is JIMT-1 cells. Description: Cell cycle arrest assessment (propidium iodide). The format is cell-based, human. The method, then: 1×10^6 JIMT-1 cells were plated in 3mL of DMEM/FBS 90:10 (v/v) in 6-well plates and incubated overnight. Cells were treated with the compound 2384 of the invention or with CR8 for 24h. Cells were then harvested and washed three times with PBS. Cells were suspended into 300µL of propidium iodide working solution (0.05mg/mL) and incubated for 45 minutes at 4°C in the dark. Analysis was performed using a BD Fortessa flow cytometer controlled by BD FACSDiva software (BD Biosciences) and data were analyzed using FlowJo software (BD Bioscience).

For another series, the system named is A549. The experiment in a line: In vitro cytotoxicity assay (MTT). The format is cell-based. The note with it: Homo sapiens, 144 h, 6 days incubation. The essentials: as §1
A further series deals with BXPC3. The experiment in a line: In vitro cytotoxicity assay (MTT). The format is cell-based. The note with it: Homo sapiens, BXPC-3, 144 h, 6 days incubation. In outline: as §1
For a further series, the system named is Caco-2. The experiment in a line: In vitro cytotoxicity assay (MTT). The format is cell-based. As to conditions: Homo sapiens, 144 h, 6 days incubation. In outline:
as §1

A further series concerns HCT-116. The experiment in a line: In vitro cytotoxicity assay (MTT). The format is cell-based. As to conditions: Homo sapiens, 144 h, 6 days incubation. In outline:
as §1

Another series concerns HT-29. The experiment in a line: In vitro cytotoxicity assay (MTT). The format is cell-based. The note with it: Homo sapiens, 144 h, 6 days incubation. In outline: as §1
A further series deals with MCF-7. The experiment in a line: In vitro cytotoxicity assay (MTT). The format is cell-based. As to conditions: Homo sapiens, MCF7, 144 h, 6 days incubation. In outline: as §1
The subject of the next series is OE-19. The experiment in a line: In vitro cytotoxicity assay (MTT). The note with it: Homo sapiens, OE19, 144 h, 6 days incubation. The format is cell-based. The essentials: as §1

Consider two compounds from patent EP4512427A1, “ANTIBODY-DRUG CONJUGATES BASED ON MOLECULAR GLUE DEGRADERS AND USES THEREOF” (Mablink Bioscience, priority 2023, dated 2025).

By IC50 is commonly meant the concentration that gives 50% inhibition. High values mean a need for much substance, low ones inhibition by little substance.

As for `CC[C@H](CO)Nc1nc(NCc2ccc(-c3ccccn3)cc2)c2ncn(C(C)C)c2n1` [CR8, reference compound], the IC50 in the series on BT-474 turned out to be 18.4 nM; with JIMT-1 it was 25.2 nM; in the series on MDA-MB-231, 10.4 nM; in the series on MDA-MB-453 it was 40.3 nM; in the series on NCI-N87, 62.2 nM; with SKBR-3, 30.6 nM. Moreover, the “in vitro cytotoxicity potency” value in series [1] is listed as “potencies in the high nanomolar range”. In addition, the CycK degradation entry in the series with CycK was “no CycK was observed”. Also, the cell cycle analysis entry is listed as “arrest in G2/M phase” in the series on JIMT-1 cells (24h at 50 nM); “no impact on cell cycle” with JIMT-1 cells (24h at 2, 5, and 10 nM).

Consider `Brc1cnn2c(NCc3ccc(-c4ccccn4)cc3)nc(NC3CCNCC3)nc12` [Compound 2388, 8-bromo-N2-(piperidin-4-yl)-N4-(4-(pyridin-2-yl)benzyl)pyrazolo[1,5-a][1,3,5]triazine-2,4-diamine], for which the IC50 was 1.64 nM in the series on BT-474 (Homo sapiens, BT-474, 144 h); 0.64 nM in the series on JIMT-1 (Homo sapiens, 144 h); 0.76 nM in the series on MDA-MB-231 (Homo sapiens, MDA-MB-231, 144 h); 1.27 nM in the series on MDA-MB-453 (Homo sapiens, MDA-MB-453, 144 h); 1.4 nM in the series with NCI-N87 (Homo sapiens, NCI-N87, 144 h); 1.68 nM in the series with SKBR-3 (Homo sapiens, SK-BR-3, 144 h). In addition, the IC50 in the series on A549 came out at 0.65 nM; in the series with BXPC3, 1.97 nM; with Caco-2, 4.46 nM; in the series with HCT-116, 1.66 nM; with HT-29, 0.23 nM; in the series on MCF-7 it was 5.4 nM. Half-maximal inhibition in the series with OE-19 (IC50) was put at 3.77 nM.
